Reference: PubChem BioAssay (NCI)
Where “and” joins values, the source holds several entries; their conditions need not be identical. Equal values may be shown once.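 Cells were grown in 96-well plates and exposed to each compound for 48 hours at five concentrations; endpoints were interpolated linearly between bracketing concentrations, or set to the highest concentration if not reached. The concentration for 50% growth inhibition is given as GI50. Definition used: TGI = concentration required for complete inhibition of growth.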

Assays:
Assay in all cases: inhibition of tumour cell growth, NCI panel, 48 h
EKVX NSCLC = tested on: EKVX NSCLC
TK-10 renal = tested on: TK-10 renal
COLO 205 colon = tested on: COLO 205 colon
CAKI-1 renal = tested on: CAKI-1 renal
SR leukemia = tested on: SR leukemia
SF-268 CNS = tested on: SF-268 CNS
HT29 colon = tested on: HT29 colon
LOX IMVI melanoma = tested on: LOX IMVI melanoma
SK-MEL-28 melanoma = tested on: SK-MEL-28 melanoma
KM12 colon = tested on: KM12 colon
M14 melanoma = tested on: M14 melanoma
A549 NSCLC = tested on: A549 NSCLC
NCI/ADR-RES ovarian = tested on: NCI/ADR-RES ovarian
HS 578T breast = tested on: HS 578T breast
SF-539 CNS = tested on: SF-539 CNS
SK-MEL-2 melanoma = tested on: SK-MEL-2 melanoma

Row | Structure (SMILES) | TGI (EKVX NSCLC) [µM] | TGI (TK-10 renal) [µM] | TGI (COLO 205 colon) [µM] | GI50 (CAKI-1 renal) [µM] | TGI (CAKI-1 renal) [µM] | TGI (SR leukemia) [µM] | TGI (SF-268 CNS) [µM] | TGI (HT29 colon) [µM] | TGI (LOX IMVI melanoma) [µM] | TGI (SK-MEL-28 melanoma) [µM] | TGI (KM12 colon) [µM] | TGI (M14 melanoma) [µM] | TGI (A549 NSCLC) [µM] | TGI (NCI/ADR-RES ovarian) [µM] | GI50 (HS 578T breast) | TGI (HS 578T breast) [µM] | TGI (SF-539 CNS) [µM] | TGI (SK-MEL-2 melanoma) [µM]
1 | C#CCOCC12C=CC(O1)C1C(=O)N(C)C(=O)C12 (centres undefined) | > 100 | > 100 | > 100 | > 100 | > 100 | > 100 | > 100 | > 100 | > 100 | > 100 | > 100 | > 100 | > 100 | > 100 | > 100 µM and 20 µM | > 100 | > 100 | 
2 | COc1ccc(NS(=O)CCCc2ccccc2)cc1 (centres undefined) | > 100 | > 100 | > 100 |  |  | > 100 | > 100 | > 100 | > 100 | > 100 | > 100 |  | > 100 | > 100 |  | > 100 | > 100 | > 100
3 | N#C/C(=C\c1ccccc1)C(=O)Nc1nnc(-c2ccccc2)o1 | > 100 | > 100 | 80.4 |  | 73.2 | 93.2 | > 100 | > 100 | > 100 | > 100 | > 100 | > 100 | > 100 | > 100 |  | > 100 |  | > 100
4 | COc1c2c(cc3oc(C)cc(=O)c13)OC(=N)C(C(N)=O)C2CC(=O)c1ccc(N)cc1 (centres undefined) | > 100 | > 100 | > 100 |  | > 100 | > 100 | > 100 |  | > 100 | > 100 | > 100 | > 100 | > 100 | > 100 |  | > 100 | > 100 | > 100
5 | Cc1ccc(N2C(=O)C3c4[nH]c5ccccc5c4C4CCC(C(C)(C)C)CC4C3C2=O)cc1 (centres undefined) | 42.4 | 15.7 | 22.5 |  | 23.2 | 16.6 | 18.9 | 46.1 | 26.6 | 49 | 65 | 35.6 | 23.1 | 31.8 |  | 16.9 |  | 44.6
6 | O=C(NNC1=NCCN1)c1ccco1 | > 100 | > 100 | > 100 |  |  | > 100 | > 100 | > 100 | > 100 | > 100 | > 100 | > 100 | > 100 | > 100 |  | > 100 | > 100 | > 100
7 | O=[N+]([O-])/C=C1\COCc2cc3c(cc21)OCO3 | 74.7 | 50 | 42 |  | 25.7 | 61.4 | 67 | 67.2 | 71.5 | 34.2 | 28.4 | 26.9 | 39.8 | 43.4 |  | 80.7 | 52.4 | 
8 | CN(C)CCNC(=O)c1cccc2c(NCC(=O)O)c3ccccc3nc12 | 56.4 | > 100 | > 100 |  |  | > 100 | 33.4 | 17.7 | > 100 | 52.6 | 60.7 | 52.2 | 53.5 | 48.2 |  | 50.7 |  | 37.4
9 | CN(C)c1ccc(N=Nc2ccc3nc[nH]c3c2)cc1 | > 100 | 52.8 | 50.4 |  | > 100 | 87.5 | 54 | 37 |  | 25.6 | 63.9 | 46.8 | > 100 | > 100 |  | 74.2 | 36.9 | > 100
10 | CCCCCC/C=C\CCCCCCCCCc1cccc(O)c1C(=O)O | > 100 | > 100 | > 100 |  | > 100 | > 100 | > 100 | > 100 |  | > 100 | > 100 | > 100 | > 100 | > 100 |  | > 100 | > 100 | 95.8
11 | O=C(NCCCCCCCCNC(=O)c1cc(-c2ccccc2)nc2ccccc12)c1cc(-c2ccccc2)nc2ccccc12 | > 100 | > 100 | > 100 |  | > 100 | > 100 | > 100 | > 100 | > 100 | > 100 |  | > 100 | > 100 | > 100 |  | > 100 | > 100 | 
12 | C=Cc1c(C)c(OC)cc2c1Oc1ccc(OC)c(C)c1CC2 | > 100 | > 100 | > 100 |  | > 100 | > 100 | > 100 | > 100 |  | > 100 | > 100 | > 100 | > 100 | > 100 |  | > 100 | > 100 | > 100
13 | C=CCOC(=O)/C(=C\c1ccc(OC)c(OC)c1)c1ccc(OC)c(OC)c1 | > 100 | > 100 | > 100 |  | > 100 | 72.3 | > 100 | > 100 |  | > 100 | > 100 | > 100 | > 100 | > 100 |  | > 100 | > 100 | > 100
